In article PMC6891756, “Synthesis and Biological Evaluation of Novel Aminochalcones as Potential Anticancer and Antimicrobial Agents” (Molecules, 2019):
Converted amounts (≈) assume the structure as drawn.

Experiments:
[1] = system: Staphylococcus aureus DSM799; test: MIC evaluation (broth method), S. aureus; type: cell-based; details: 48–72 h, read-out: Minimal inhibitory concentration S. aureus
Protocol: (§1) Sterile 96-well microtiter plates (Sarstedt) with nutrient broth (for bacteria) (Biocorp) or YM medium (for yeast and filamentous fungi) were inoculated with a standardized cell suspension of bacteria and yeast or fungal spores of 10^5 cell·mL^−1, and supplemented with aminochalcones dissolved in DMSO. […] All analysis were conducted in triplicates. The plates were incubated at 30 °C (bacteria and yeast) or 25 °C (filamentous fungi) for 48–72 h. The results were measured with the Spark® Multimode Microplate Reader (Tecan, Männedorf, Switzerland) at a 560 nm wavelength. The minimal inhibitory concentration was defined as the lowest concentration of a tested compound that completely restricted the growth of the microorganism. In order to verify the obtained results, microbial cultures subjected to each concentration of aminochalcone were inoculated onto nutrient agar or YM plates and incubated as described above. The lack of growth on agar plate was a confirmation of the MIC of the tested compound. The resulting MIC values were compared with the reference substances: oxytetracycline (against bacteria), cycloheximide (against yeast) and nystatin (against fungi) (Sigma Aldrich).

[2] = system: Escherichia coli ATCC10536; test: MIC evaluation (broth method), E. coli; type: cell-based; details: 48–72 h, read-out: Minimal inhibitory concentration E. coli
Protocol: as §1

Candida albicans DSM1386 [3] = test: MIC evaluation (broth method), C. albicans; type: cell-based; details: DSM1386, broth method, 48–72 h, read-out: Minimal inhibitory concentration C. albicans
Protocol: as §1

[4] = system: Aspergillus niger DSM1957; test: Microbial growth curve screening, A. niger; type: cell-based; details: 0.1% (w/v); for ∆OD A. niger: OD at 560 nm, control 2.14; for Lag-phase A. niger: control 11.0 h
Protocol: (§2) The antimicrobial screening tests were performed on two strains of bacteria: E. coli ATCC10536 and S. aureus DSM799, strain of yeast C. albicans DSM1386 and three strains of fungi: F. linii KB-F1, A. alternata CBS1526 and A. niger DSM1957. All microorganisms were obtained from the collection of the Faculty of Biotechnology and Food Microbiology, Wrocław University of Environmental and Life Sciences. The bacteria were cultured in nutrient broth (Biocorp, Warsaw, Poland), yeast and fungi in YM medium (3 g yeast extract, 3 g malt extract, 5 g bacteriological peptone and 10 g of glucose dissolved in 1 L of distilled water). The tests were carried out in 100-well microtiter plates. To each well 280 μL of culture medium, 10 μL of microorganism suspension and 10 μL of aminochalcone (1–18) dissolved in dimethyl sulfoxide (3% (w/v)) were added. The final concentration of the tested compound (1–18) was 0.1% (w/v). Each experiment were performed in 3 replications. The optical density of the cell suspension was measured on Bioscreen C (Automated Growth Curve Analysis System Lab System, Vantaa, Finland) at 560 nm automatically, at regular intervals of 30 min for 2–3 days. Cell cultures were maintained at 28 °C on a continuous shaker. To prepare the growth curves for each strain, the mean values of the absorbance in a function of time were used. The resulting antimicrobial activity was expressed as the increase of optical density (ΔOD) and was compared to that of the control cultures in the medium supplemented with dimethyl sulfoxide and also with reference substances: oxytetracycline (against bacteria), cycloheximide (against yeast) and nystatin (against fungi) (Sigma Aldrich).

[5] = system: Alternaria alternata CBS1526; test: Microbial growth curve screening, A. alternata; type: cell-based; details: 0.1% (w/v); for ∆OD A. alternata: OD at 560 nm, control 1.86; for Lag-phase A. alternata: control 16.5 h
Protocol: as §2

Fusarium linii KB-F1 [6] = test: Microbial growth curve screening, F. linii; type: cell-based; details: 0.1% (w/v); for ∆OD F. linii: OD at 560 nm, control 1.95; for Lag-phase F. linii: control 13.5 h
Protocol: as §2

[7] = system: Staphylococcus aureus DSM799; test: Microbial growth curve screening, S. aureus; type: cell-based; details: 0.1% (w/v); for ∆OD S. aureus: OD at 560 nm, control 1.67
Protocol: as §2

[8] = system: Escherichia coli ATCC10536; test: Microbial growth curve screening, E. coli; type: cell-based; details: 0.1% (w/v), OD at 560 nm, control 1.61
Protocol: as §2

LoVo = test: SRB antiproliferative assay, LoVo; type: cell-based, human; details: Homo sapiens, LoVo, 48 h, 1–100 µg·mL^−1, ND = not detected in the tested concentration range
Protocol: (§3) Anticancer activity was evaluated using the sulforhodamine B assay (SRB) on four different human colon cancer cell lines: HT-29, LS180, LoVo and LoVo/DX and green monkey kidney fibroblasts COS7 (ATCC, Manassas, VA, USA). Cell lines HT-29 and COS7 were cultured in α-MEM medium (IIET PAS, Wrocław, Poland), LS180 in OptiMEM medium (IIET PAS), LoVo and LoVo/DX in mixture of α-MEM and OptiMEM medium (1:1 (v:v)). Each culture medium was supplemented with 10% fetal bovine serum, 2 mM glutamine, 100 μg·mL^−1 penicillin, 100 μg·mL^−1 streptomycin and 0.25 μg·mL^−1 amphotericin (all supplements purchased from Gibco (Paisley, UK). Cells were incubated at 37 °C, 5% CO2 in HeraCELL 150i incubator (Thermo Fisher Scientific, Waltham, MA, USA).
(§4) For the SRB assay, cells were seeded onto 96-well plates (Sarstedt, Nümbrecht, Germany) at a density of 5·10^3/well and cultured overnight as described above. Then, the growth medium was gently removed and replaced with fresh medium, supplemented with aminochalcone derivatives in the concentration ranging from 1 µg·mL^−1 to 100 µg·mL^−1. All stock solutions were prepared in DMSO at a concentration of 10 mg·mL^−1. Cells were incubated for 48 h and then the SRB assay was performed as described previously. Each experiment was performed in quadruplicate. The final results were reported as the IC50 values calculated for three independent experiments. Cisplatin (Acros Organics, Waltham, MA, USA) and doxorubicin (Fisher BioReagents, Waltham, MA, USA) were used as positive controls of the test.

HT-29 = test: SRB antiproliferative assay, HT-29; type: cell-based, human; details: Homo sapiens, HT-29; SRB, 48 h, 1–100 µg·mL^−1; ND = not detected in the tested concentration range
Protocol: as §3, §4

Candida albicans DSM1386 [9] = test: Microbial growth curve screening, C. albicans; type: cell-based; details: 0.1% (w/v); for ∆OD C. albicans: OD at 560 nm, control 1.58; for Lag-phase C. albicans: control 3.0 h
Protocol: as §2

Fusarium linii KB-F1 [10] = test: MIC evaluation (broth method), F. linii; type: cell-based
Protocol: as §1

LS180 = test: SRB antiproliferative assay, LS180; type: cell-based, human; details: Homo sapiens, LS180, 48 h, 1–100 µg·mL^−1, ND = not detected in the tested concentration range
Protocol: as §3, §4

LoVo/DX = test: SRB antiproliferative assay, LoVo/DX; type: cell-based, human; details: Homo sapiens, LoVo/DX, 48 h, 1–100 µg·mL^−1, ND = not detected in the tested concentration range
Protocol: as §3, §4

[11] = SRB assay, normal fibroblasts COS7; type: cell-based, green monkey; details: green monkey, COS7 kidney fibroblasts (normal cell line), ND = not detected in the tested concentration range
Protocol: as §3, §4

[12] = system: Aspergillus niger DSM1957; test: MIC evaluation (broth method), A. niger; type: cell-based
Protocol: as §1

[13] = system: Alternaria alternata CBS1526; test: MIC evaluation (broth method), A. alternata; type: cell-based
Protocol: as §1

Trichophyton rubrum = system: Trichophyton rubrum; parameters: method as in doi:10.1007/s10600-018-2281-7; details: cited from earlier work

| Structure (SMILES) | MIC [1] | MIC [2] | ∆OD A. niger [4] | Lag-phase A. niger [4] | ∆OD A. alternata [5] | Lag-phase A. alternata [5] | ∆OD F. linii (Fusarium linii KB-F1 [6]) | Lag-phase F. linii (Fusarium linii KB-F1 [6]) | ∆OD S. aureus [7] | ∆OD E. coli [8] | IC50 (LoVo) | IC50 (HT-29) | ∆OD C. albicans (Candida albicans DSM1386 [9]) | Lag-phase C. albicans (Candida albicans DSM1386 [9]) | IC50 (LS180) | IC50 (LoVo/DX) | IC50 at 48 h [11] | also measured |
| --- | --- | --- | --- | --- | --- | --- | --- | --- | --- | --- | --- | --- | --- | --- | --- | --- | --- | --- |
| Nc1ccccc1C(=O)/C=C/c1ccc(OCc2ccccc2)cc1 [Compound 13, 2′-Amino-4-benzyloxychalcone] | 0.25 µg/mL (≈ 0.759 µM) | 0.25 µg/mL (≈ 0.759 µM) | 0.78 | 21.5 h | 0.92 | 13.0 h | 0.32 | 16.0 h | 0 | 0.0 |  |  |  |  |  |  |  | MIC (Candida albicans DSM1386 [3]): 0.5 µg/mL (≈ 1.52 µM) |
| COc1cc(/C=C/C(=O)c2ccccc2N)ccc1OCc1ccccc1 [Compound 16, 2′-Amino-4-benzyloxy-3-methoxychalcone] | 0.5 µg/mL (≈ 1.39 µM) | 0.5 µg/mL (≈ 1.39 µM) | 0.41 | 40.5 h | 0.64 | 8.5 h | 0 |  | 0 | 0.0 | 5.77 ± 0.38 µg/mL (≈ 16.1 µM) | 4.85 ± 0.08 µg/mL (≈ 13.5 µM) | 0.66 | 8.5 h | 6.64 ± 0.29 µg/mL (≈ 18.5 µM) | 4.59 ± 0.21 µg/mL (≈ 12.8 µM) | 9.02 ± 0.17 µg/mL (≈ 25.1 µM) | MIC (Fusarium linii KB-F1 [10]; Fusarium, KBF1, 48–72 h, read-out: Minimal inhibitory concentration F. linii): 0.5 µg/mL (≈ 1.39 µM) |
| COc1cc(/C=C/C(=O)c2cccc(N)c2)ccc1OCc1ccccc1 [Compound 17, 3′-Amino-4-benzyloxy-3-methoxychalcone] |  | 0.125 µg/mL (≈ 0.348 µM) |  |  |  |  | 0.24 | 11.0 h | 0.36 | 0.0 | 1.71 ± 0.13 µg/mL (≈ 4.76 µM) | 2.9 ± 0.27 µg/mL (≈ 8.07 µM) | 0.55 | 9.0 h | 3.76 ± 0.38 µg/mL (≈ 10.5 µM) | 1.77 ± 0.09 µg/mL (≈ 4.92 µM) | 3.45 ± 0.22 µg/mL (≈ 9.6 µM) | MIC ([12]; Aspergillus niger, DSM1957, 48–72 h, read-out: Minimal inhibitory concentration A. niger): 1 µg/mL (≈ 2.78 µM); MIC ([13]; Alternaria alternata, CBS1526, 48–72 h, read-out: Minimal inhibitory concentration A. alternata): 1 µg/mL (≈ 2.78 µM); Lag-phase S. aureus ([7]; control 2.5 h): 33.5 h; melting point: 38 °C |
| C[C@@H]1[C@H](O)[C@@H](C)/C=C/C=C/CC/C=C/C=C/C=C/C=C/C(O[C@H]2O[C@H](C)[C@@H](O)[C@H](N)[C@@H]2O)CC2O[C@](O)(CC(O)C(O)CCC(O)CC(O)CC(O)CC(=O)O[C@H]1C)CC(O)C2C(=O)O (some centres unmarked) [Nystatin, reference compound] |  |  | 0.74 | 4.5 h | 0.0 |  | 0.13 | 10.0 h |  |  |  |  |  |  |  |  |  | Minimal inhibitory concentration F. linii (Fusarium linii KB-F1 [10]; 48–72 h): 0.5 mg/mL (≈ 540 µM); Minimal inhibitory concentration A. niger ([12]; 48–72 h): 0.25 mg/mL (≈ 270 µM); Minimal inhibitory concentration A. alternata ([13]; 48–72 h): 1.0 mg/mL (≈ 1080 µM) |
| OC(Cn1cncn1)(Cn1cncn1)c1ccc(F)cc1F [fluconazole] |  |  |  |  |  |  |  |  |  |  |  |  |  |  |  |  |  | MIC80 Trichophyton rubrum (literature) (Trichophyton rubrum): 0.25 µg/mL (≈ 0.816 µM) |
